Reference: PubChem BioAssay AID1259407 (Chemical Carcinogenesis Research Information System (CCRIS), 2018)
Calls of active or inactive are those of the source. No rule for the calls is given here.

System: CCRIS mutagenicity, Ames/micronucleus/aberration tests
Assay: CCRIS mutagenicity studies
[1] = Test System: AMES SALMONELLA TYPHIMURIUM, Strain/Indicator: TA98, Metabolic Activation: NONE, Method: STANDARD PLATE
[2] = Test System: AMES SALMONELLA TYPHIMURIUM, Strain/Indicator: TA100, Metabolic Activation: NONE, Method: PREINCUBATION
[3] = Test System: AMES SALMONELLA TYPHIMURIUM, Strain/Indicator: TA100, Metabolic Activation: RAT, LIVER, S-9, AROCLOR 1254, Method: PREINCUBATION
[4] = Test System: AMES SALMONELLA TYPHIMURIUM, Strain/Indicator: TA97, Metabolic Activation: NONE, Method: PREINCUBATION
[5] = Test System: AMES SALMONELLA TYPHIMURIUM, Strain/Indicator: TA98, Metabolic Activation: NONE, Method: PREINCUBATION
[6] = Test System: AMES SALMONELLA TYPHIMURIUM, Strain/Indicator: TA1535, Metabolic Activation: NONE, Method: PREINCUBATION
[7] = Test System: AMES SALMONELLA TYPHIMURIUM, Strain/Indicator: TA1537, Metabolic Activation: NONE, Method: PREINCUBATION
[8] = Test System: AMES SALMONELLA TYPHIMURIUM, Strain/Indicator: TA98, Metabolic Activation: HAMSTER, LIVER, S-9, AROCLOR 1254 (10%), Method: PREINCUBATION
[9] = Test System: AMES SALMONELLA TYPHIMURIUM, Strain/Indicator: TA98, Metabolic Activation: RAT, LIVER, S-9, AROCLOR 1254 (10%), Method: PREINCUBATION
[10] = Test System: AMES SALMONELLA TYPHIMURIUM, Strain/Indicator: TA100, Metabolic Activation: HAMSTER, LIVER, S-9, AROCLOR 1254 (10%), Method: PREINCUBATION
[11] = Test System: AMES SALMONELLA TYPHIMURIUM, Strain/Indicator: TA100, Metabolic Activation: RAT, LIVER, S-9, AROCLOR 1254 (10%), Method: PREINCUBATION
[12] = Test System: AMES SALMONELLA TYPHIMURIUM, Strain/Indicator: TA1535, Metabolic Activation: HAMSTER, LIVER, S-9, AROCLOR 1254 (10%), Method: PREINCUBATION
[13] = Test System: AMES SALMONELLA TYPHIMURIUM, Strain/Indicator: TA1535, Metabolic Activation: RAT, LIVER, S-9, AROCLOR 1254 (10%), Method: PREINCUBATION

## O=Cc1ccc([N+](=O)[O-])o1
Test System: AMES SALMONELLA TYPHIMURIUM, Strain/Indicator: TA98(1,8-DNP6), Metabolic Activation: NONE, Method: STANDARD PLATE
  mutagenic call: active; positive
Test System: AMES SALMONELLA TYPHIMURIUM, Strain/Indicator: TA98(1,8-DNP6), Metabolic Activation: RAT, LIVER, S-9, 3-METHYLCHOLANTHRENE, Method: STANDARD PLATE
  mutagenic call: active; positive
Test System: AMES SALMONELLA TYPHIMURIUM, Strain/Indicator: TA98(NR), Metabolic Activation: NONE, Method: STANDARD PLATE
  mutagenic call: active; positive
Test System: AMES SALMONELLA TYPHIMURIUM, Strain/Indicator: TA98(NR), Metabolic Activation: RAT, LIVER, S-9, 3-METHYLCHOLANTHRENE, Method: STANDARD PLATE
  mutagenic call: active; positive
[1]
  mutagenic call: active; positive
Test System: AMES SALMONELLA TYPHIMURIUM, Strain/Indicator: TA98, Metabolic Activation: RAT, LIVER, S-9, 3-METHYLCHOLANTHRENE, Method: STANDARD PLATE
  mutagenic call: active; positive
Test System: AMES SALMONELLA TYPHIMURIUM, Strain/Indicator: TA100(1,8-DNP6), Metabolic Activation: NONE, Method: PREINCUBATION
  mutagenic call: active; positive
Test System: AMES SALMONELLA TYPHIMURIUM, Strain/Indicator: TA100(1,8-DNP6), Metabolic Activation: RAT, LIVER, S-9, AROCLOR 1254, Method: PREINCUBATION
  mutagenic call: active; positive
Test System: AMES SALMONELLA TYPHIMURIUM, Strain/Indicator: TA100(NR), Metabolic Activation: NONE, Method: PREINCUBATION
  mutagenic call: active; positive
Test System: AMES SALMONELLA TYPHIMURIUM, Strain/Indicator: TA100(NR), Metabolic Activation: RAT, LIVER, S-9, AROCLOR 1254, Method: PREINCUBATION
  mutagenic call: active; positive
[2]
  mutagenic call: active; positive
[3]
  mutagenic call: active; positive

## O=C(O)c1ccccc1C1=c2cc3c4c(c2Oc2c1cc1c5c2CCCN5CCC1)CCC[N+]=4CCC3
Test System: AMES SALMONELLA TYPHIMURIUM, Strain/Indicator: TA1538, Metabolic Activation: NONE, Method: STANDARD PLATE
  mutagenic call: inactive; negative
Test System: AMES SALMONELLA TYPHIMURIUM, Strain/Indicator: TA1538, Metabolic Activation: RAT, LIVER, S-9, AROCLOR 1254, Method: STANDARD PLATE
  mutagenic call: inactive; negative

## Nc1nc(=O)n([C@H]2C[C@H](O)[C@@H](CO)O2)cc1CCCl
[4]
  mutagenic call: inactive; negative
Test System: AMES SALMONELLA TYPHIMURIUM, Strain/Indicator: TA97, Metabolic Activation: RAT, LIVER, S-9, AROCLOR 1254, Method: PREINCUBATION
  mutagenic call: inactive; negative
[5]
  mutagenic call: inactive; negative
Test System: AMES SALMONELLA TYPHIMURIUM, Strain/Indicator: TA98, Metabolic Activation: RAT, LIVER, S-9, AROCLOR 1254, Method: PREINCUBATION
  mutagenic call: inactive; negative
[2]
  mutagenic call: inactive; negative
[3]
  mutagenic call: inactive; negative
Test System: AMES SALMONELLA TYPHIMURIUM, Strain/Indicator: TA102, Metabolic Activation: NONE, Method: PREINCUBATION
  mutagenic call: inactive; negative
Test System: AMES SALMONELLA TYPHIMURIUM, Strain/Indicator: TA102, Metabolic Activation: RAT, LIVER, S-9, AROCLOR 1254, Method: PREINCUBATION
  mutagenic call: inactive; negative
Test System: AMES SALMONELLA TYPHIMURIUM, Strain/Indicator: TA104, Metabolic Activation: NONE, Method: PREINCUBATION
  mutagenic call: inactive; negative
Test System: AMES SALMONELLA TYPHIMURIUM, Strain/Indicator: TA104, Metabolic Activation: RAT, LIVER, S-9, AROCLOR 1254, Method: PREINCUBATION
  mutagenic call: inactive; negative
[6]
  mutagenic call: inactive; negative
Test System: AMES SALMONELLA TYPHIMURIUM, Strain/Indicator: TA1535, Metabolic Activation: RAT, LIVER, S-9, AROCLOR 1254, Method: PREINCUBATION
  mutagenic call: inactive; negative
[7]
  mutagenic call: inactive; negative
Test System: AMES SALMONELLA TYPHIMURIUM, Strain/Indicator: TA1537, Metabolic Activation: RAT, LIVER, S-9, AROCLOR 1254, Method: PREINCUBATION
  mutagenic call: inactive; negative
Test System: AMES SALMONELLA TYPHIMURIUM, Strain/Indicator: TA1538, Metabolic Activation: NONE, Method: PREINCUBATION
  mutagenic call: inactive; negative
Test System: AMES SALMONELLA TYPHIMURIUM, Strain/Indicator: TA1538, Metabolic Activation: RAT, LIVER, S-9, AROCLOR 1254, Method: PREINCUBATION
  mutagenic call: inactive; negative
Test System: CHINESE HAMSTER V-79, Strain/Indicator: V-79/8-AZAGUANINE, Metabolic Activation: NONE
  mutagenic call: inactive; negative

## ClC/C=C\CCl
Test System: AMES SALMONELLA TYPHIMURIUM, Strain/Indicator: TA98, Metabolic Activation: HAMSTER, LIVER, S-9, AROCLOR 1254 (10%), Method: STANDARD PLATE
  mutagenic call: active; positive
Test System: AMES SALMONELLA TYPHIMURIUM, Strain/Indicator: TA100, Metabolic Activation: HAMSTER, LIVER, S-9, AROCLOR 1254 (10%), Method: STANDARD PLATE
  mutagenic call: active; positive
Test System: AMES SALMONELLA TYPHIMURIUM, Strain/Indicator: TA100, Metabolic Activation: NONE, Method: STANDARD PLATE
  mutagenic call: active; positive
Test System: AMES SALMONELLA TYPHIMURIUM, Strain/Indicator: TA100, Metabolic Activation: RAT, LIVER, S-9, AROCLOR 1254 (10%), Method: STANDARD PLATE
  mutagenic call: active; positive
Test System: MOUSE LYMPHOMA, Strain/Indicator: L5178Y (TK+/TK-), Metabolic Activation: NONE, Method: SUSPENSION/PLATE
  mutagenic call: active; positive. reevaluation of results: positive
Test System: MOUSE LYMPHOMA, Strain/Indicator: L5178Y (TK+/TK-), Metabolic Activation: RAT, LIVER, S-9, AROCLOR 1254, Method: SUSPENSION/PLATE
  mutagenic call: active; positive. reevaluation of results: positive

## CN(C)CCOC(C)(c1ccccc1)c1ccccn1 (stereo not given)
[8]
  mutagenic call: inactive; negative
[5]
  mutagenic call: inactive; negative
[9]
  mutagenic call: inactive; negative
[10]
  mutagenic call: inactive; negative
[2]
  mutagenic call: inactive; negative
[11]
  mutagenic call: inactive; negative
[12]
  mutagenic call: inactive; negative
[6]
  mutagenic call: inactive; negative
[13]
  mutagenic call: inactive; negative
Test System: AMES SALMONELLA TYPHIMURIUM, Strain/Indicator: TA1537, Metabolic Activation: HAMSTER, LIVER, S-9, AROCLOR 1254 (10%), Method: PREINCUBATION
  mutagenic call: inactive; negative
[7]
  mutagenic call: inactive; negative
Test System: AMES SALMONELLA TYPHIMURIUM, Strain/Indicator: TA1537, Metabolic Activation: RAT, LIVER, S-9, AROCLOR 1254 (10%), Method: PREINCUBATION
  mutagenic call: inactive; negative

## CN(C)c1ccc(N=NS(=O)(=O)O)cc1
Test System: AMES SALMONELLA TYPHIMURIUM, Strain/Indicator: TA97, Metabolic Activation: HAMSTER, LIVER, S-9, AROCLOR 1254 (10%), Method: PREINCUBATION
  mutagenic call: active; positive
[4]
  mutagenic call: active; positive
Test System: AMES SALMONELLA TYPHIMURIUM, Strain/Indicator: TA97, Metabolic Activation: RAT, LIVER, S-9, AROCLOR 1254 (10%), Method: PREINCUBATION
  mutagenic call: active; positive
[8]
  mutagenic call: active; positive
[5]
  mutagenic call: active; positive
[1]
  mutagenic call: active; positive
[9]
  mutagenic call: active; positive
Test System: AMES SALMONELLA TYPHIMURIUM, Strain/Indicator: TA98, Metabolic Activation: S-9 MIX, Method: STANDARD PLATE
  mutagenic call: active; positive
[10]
  mutagenic call: active; positive
[2]
  mutagenic call: active; positive
[11]
  mutagenic call: active; positive
[12]
  mutagenic call: active; positive
[6]
  mutagenic call: inactive; negative
[13]
  mutagenic call: inactive; negative
Test System: E. COLI, Strain/Indicator: WP2, Metabolic Activation: NONE, Method: STANDARD PLATE
  mutagenic call: active; positive
Test System: E. COLI, Strain/Indicator: WP2 UVRA, Metabolic Activation: NONE, Method: STANDARD PLATE
  mutagenic call: active; positive
